Tested on: patients with advanced solid tumors
Assay: Phase 1 trial: adverse events (CTCAE), DLT and MTD
Assay type: in vivo, human
Method: The phase 1 trial was a two-part, multicenter, open-label, nonrandomized study to evaluate the safety and preliminary efficacy of HA121-28.
Safety, tolerability, and PK of HA121-28 was assessed in dose-escalation part. The single-patient accelerated titration was carried out at 25 mg and 50 mg; then, the dose escalation proceeded according to a “3 + 3” design in dose range of 100 to 800 mg. Escalation to a higher dose level was considered by the satisfactory review of safety results from the previous lower dose during the first cycle.
The dose-expansion part aims to further access the safety and efficacy of HA121-28 at the selected doses based on data from the dose-escalation part. The RP2D was determined by investigators in view of a thorough review of safety, PK, and efficacy results.
In phase 1 trial, during the dose-escalation part, patients first administered HA121-28 in a single ascending dose under the fasted state, then followed up for seven days. Then, patients received ascending doses of HA121-28 (q.d.) on a 21-day on and 7-day off treatment scheme for a 28-day cycle. For patients deemed beneficial from the treatment by investigators, treatment could remain until disease progression, or they discontinued from the study. In the dose-expansion part of phase 1, as well as phase 2, patients received HA121-28 (q.d.) at the selected doses on a 21-day on and 7-day off treatment scheme until disease progression, or they discontinued from the study.
Treatment-emergent adverse events (TEAEs) were documented during the entire study period. The predefined adverse event of special interest (AESI) was ≥ grade 3 prolonged QT interval. Tumor imaging was performed using contrast-enhanced computed tomography or magnetic resonance imaging at screening, Day 28 of the first cycle, then approximately every eight weeks till the end of the study for phase 1; in phase 2, imaging was scheduled at screening, and every eight weeks during the first 40 weeks, followed by every 12 weeks for the rest of the study period. RECIST 1.1 was used by the independent review committee or investigators for assessment of tumor response. After the original assessment, a repeated assessment was required around four weeks later to confirm a complete or partial response.
The primary endpoints of phase 1 were to investigate the MTD, dose-limiting toxicities, and the incidence and severity of TEAEs. Each TEAE was graded according to the Common Terminology Criteria for Adverse Events (CTCAE, version 5.0) and coded by Medical Dictionary for Regulatory Activities (MedDRA, version 21.0). The secondary endpoints included calculating PK parameters, assessing the ORR and DCR at the recommended dose by investigators as per RECIST 1.1. The exploratory endpoint was PFS.
If grade 2 or higher toxicity related to the study drug occurs in Groups 1 and 2 (as determined by the investigator), dose escalation will proceed using a 3+3 design starting from that dose level. If no DLT is observed at the 800 mg/d dose level after dose escalation, a meeting of investigators will be convened to decide whether to proceed with further dose escalation based on the available PK data, safety, and tolerability information.
5. Definition of DLT and MTD
The following events related to the study drug (including those that are definitely related, highly likely to be related, and possibly related):
(1) Grade 4 hematologic toxicity or grade 3 neutropenia accompanied by a fever of 38.5℃ or higher, or grade 3 thrombocytopenia accompanied by severe bleeding.
(2) Patients who discontinued the medication for more than 7 days due to unresolved toxicity reactions or who discontinued the medication more than twice due to toxicity […]
(3) In the context of supportive treatment, diarrhea of grade 2 lasting more than 7 days, or grade 3 diarrhea lasting more than 3 days.

COc1cc2c(Nc3ccc(Br)cc3F)ncnc2cc1OCCCCN(C)C.Cl.Cl [HA121-28, N-(4-bromo-2-fluorophenyl)-7-(4-(dimethylamino)butoxy)-6-methoxy quinazolin-4-amine dihydrochloride]
Serious TEAE: Cardiac tamponade (Phase 1, 600 mg (N=64)): 0 No. (%)
Serious TEAE: Coronary artery atherosclerosis (Phase 1, 600 mg (N=64)): 0 No. (%)
Serious TEAE: Death (Phase 1, 600 mg (N=64)): 0 No. (%)
Serious TEAE: Diarrhea (Phase 1, 600 mg (N=64)): 2 (3.1) No. (%)
Serious TEAE: Drug eruption (Phase 1, 600 mg (N=64)): 1 (1.6) No. (%)
Serious TEAE: Dyspnea (Phase 1, 600 mg (N=64)): 0 No. (%)
Serious TEAE: Embolism (Phase 1, 600 mg (N=64)): 0 No. (%)
Serious TEAE: Erythema multiforme (Phase 1, 600 mg (N=64)): 0 No. (%)
Serious TEAE: Headache (Phase 1, 600 mg (N=64)): 0 No. (%)
Serious TEAE: Hemoptysis (Phase 1, 600 mg (N=64)): 1 (1.6) No. (%)
Serious TEAE: Hydronephrosis (Phase 1, 600 mg (N=64)): 0 No. (%)
Serious TEAE: Hypertension (Phase 1, 600 mg (N=64)): 0 No. (%)
Serious TEAE: Hypoalbuminemia (Phase 1, 600 mg (N=64)): 1 (1.6) No. (%)
Serious TEAE: Intestinal obstruction (Phase 1, 600 mg (N=64)): 0 No. (%)
Serious TEAE: Intra-abdominal fluid collection (Phase 1, 600 mg (N=64)): 0 No. (%)
Serious TEAE: Intracranial tumor hemorrhage (Phase 1, 600 mg (N=64)): 0 No. (%)
Serious TEAE: Liver injury (Phase 1, 600 mg (N=64)): 1 (1.6) No. (%)
Serious TEAE: Lung adenocarcinoma (Phase 1, 600 mg (N=64)): 0 No. (%)
Serious TEAE: Malignant neoplasm progression (Phase 1, 600 mg (N=64)): 2 (3.1) No. (%)
Serious TEAE: Multiple organ dysfunction syndrome (Phase 1, 600 mg (N=64)): 0 No. (%)
Serious TEAE: Nausea (Phase 1, 600 mg (N=64)): 2 (3.1) No. (%)
Serious TEAE: Nephrolithiasis (Phase 1, 600 mg (N=64)): 0 No. (%)
Serious TEAE: Platelet counts decreased (Phase 1, 600 mg (N=64)): 1 (1.6) No. (%)
Serious TEAE: Pleural effusion (Phase 1, 600 mg (N=64)): 0 No. (%)
Serious TEAE: Pneumonia (Phase 1, 600 mg (N=64)): 0 No. (%)
Serious TEAE: Pneumonitis (Phase 1, 600 mg (N=64)): 0 No. (%)
Serious TEAE: Prolonged QT interval (Phase 1, 600 mg (N=64)): 1 (1.6) No. (%)
Serious TEAE: Pulmonary embolism (Phase 1, 600 mg (N=64)): 0 No. (%)
Serious TEAE: Pyrexia (Phase 1, 600 mg (N=64)): 0 No. (%)
Serious TEAE: Rash (Phase 1, 600 mg (N=64)): 3 (4.7) No. (%)
Serious TEAE: Rectal hemorrhage (Phase 1, 600 mg (N=64)): 0 No. (%)
Serious TEAE: Respiratory failure (Phase 1, 600 mg (N=64)): 0 No. (%)
Serious TEAE: Seizure (Phase 1, 600 mg (N=64)): 0 No. (%)
Serious TEAE: Septic shock (Phase 1, 600 mg (N=64)): 0 No. (%)
Serious TEAE: Sudden cardiac arrest (Phase 1, 600 mg (N=64)): 1 (1.6) No. (%)
Serious TEAE: Sudden death (Phase 1, 600 mg (N=64)): 1 (1.6) No. (%)
Serious TEAE: Upper respiratory tract infection (Phase 1, 600 mg (N=64)): 1 (1.6) No. (%)
Serious TEAE: Ventricular tachycardia (Phase 1, 600 mg (N=64)): 1 (1.6) No. (%)
Serious TEAE: Vomiting (Phase 1, 600 mg (N=64)): 2 (3.1) No. (%)
Serious TEAE: Weight loss (Phase 1, 600 mg (N=64)): 2 (3.1) No. (%)
Serious TRAE: ALT increased (Phase 1, 600 mg (N=64)): 1 (1.6) No. (%)
Serious TRAE: AST increased (Phase 1, 600 mg (N=64)): 1 (1.6) No. (%)
Serious TRAE: Abdominal Pain (Phase 1, 600 mg (N=64)): 0 No. (%)
Serious TRAE: Abdominal distension (Phase 1, 600 mg (N=64)): 0 No. (%)
Serious TRAE: Acute cholecystitis (Phase 1, 600 mg (N=64)): 0 No. (%)
Serious TRAE: Acute pancreatitis (Phase 1, 600 mg (N=64)): 0 No. (%)
Serious TRAE: Anal abscess (Phase 1, 600 mg (N=64)): 1 (1.6) No. (%)
Serious TRAE: Any (Phase 1, 600 mg (N=64)): 13 (20.3) No. (%)
Serious TRAE: Aortic intramural hematoma (Phase 1, 600 mg (N=64)): 0 No. (%)
Serious TRAE: Arrhythmia (Phase 1, 600 mg (N=64)): 0 No. (%)
Serious TRAE: Blood bilirubin increased (Phase 1, 600 mg (N=64)): 1 (1.6) No. (%)
Serious TRAE: Blood creatinine increased (Phase 1, 600 mg (N=64)): 1 (1.6) No. (%)
Serious TRAE: COVID-19 (Phase 1, 600 mg (N=64)): 0 No. (%)
Serious TRAE: Cardiac tamponade (Phase 1, 600 mg (N=64)): 0 No. (%)
Serious TRAE: Coronary artery atherosclerosis (Phase 1, 600 mg (N=64)): 0 No. (%)
Serious TRAE: Death (Phase 1, 600 mg (N=64)): 0 No. (%)
Serious TRAE: Diarrhea (Phase 1, 600 mg (N=64)): 2 (3.1) No. (%)
Serious TRAE: Drug eruption (Phase 1, 600 mg (N=64)): 1 (1.6) No. (%)
Serious TRAE: Dyspnea (Phase 1, 600 mg (N=64)): 0 No. (%)
Serious TRAE: Embolism (Phase 1, 600 mg (N=64)): 0 No. (%)
Serious TRAE: Erythema multiforme (Phase 1, 600 mg (N=64)): 0 No. (%)
Serious TRAE: Headache (Phase 1, 600 mg (N=64)): 0 No. (%)
Serious TRAE: Hemoptysis (Phase 1, 600 mg (N=64)): 1 (1.6) No. (%)
Serious TRAE: Hydronephrosis (Phase 1, 600 mg (N=64)): 0 No. (%)
Serious TRAE: Hypertension (Phase 1, 600 mg (N=64)): 0 No. (%)
Serious TRAE: Hypoalbuminemia (Phase 1, 600 mg (N=64)): 1 (1.6) No. (%)
Serious TRAE: Intestinal obstruction (Phase 1, 600 mg (N=64)): 0 No. (%)
Serious TRAE: Intra-abdominal fluid collection (Phase 1, 600 mg (N=64)): 0 No. (%)
Serious TRAE: Intracranial tumor hemorrhage (Phase 1, 600 mg (N=64)): 0 No. (%)
Serious TRAE: Liver injury (Phase 1, 600 mg (N=64)): 0 No. (%)
Serious TRAE: Lung adenocarcinoma (Phase 1, 600 mg (N=64)): 0 No. (%)
Serious TRAE: Malignant neoplasm progression (Phase 1, 600 mg (N=64)): 1 (1.6) No. (%)
Serious TRAE: Multiple organ dysfunction syndrome (Phase 1, 600 mg (N=64)): 0 No. (%)
Serious TRAE: Nausea (Phase 1, 600 mg (N=64)): 2 (3.1) No. (%)
Serious TRAE: Nephrolithiasis (Phase 1, 600 mg (N=64)): 0 No. (%)
Serious TRAE: Platelet counts decreased (Phase 1, 600 mg (N=64)): 0 No. (%)
Serious TRAE: Pleural effusion (Phase 1, 600 mg (N=64)): 0 No. (%)
Serious TRAE: Pneumonia (Phase 1, 600 mg (N=64)): 0 No. (%)
Serious TRAE: Pneumonitis (Phase 1, 600 mg (N=64)): 0 No. (%)
Serious TRAE: Prolonged QT interval (Phase 1, 600 mg (N=64)): 1 (1.6) No. (%)
Serious TRAE: Pulmonary embolism (Phase 1, 600 mg (N=64)): 0 No. (%)
Serious TRAE: Pyrexia (Phase 1, 600 mg (N=64)): 0 No. (%)
Serious TRAE: Rash (Phase 1, 600 mg (N=64)): 3 (4.7) No. (%)
Serious TRAE: Rectal hemorrhage (Phase 1, 600 mg (N=64)): 0 No. (%)
Serious TRAE: Respiratory failure (Phase 1, 600 mg (N=64)): 0 No. (%)
Serious TRAE: Seizure (Phase 1, 600 mg (N=64)): 0 No. (%)
Serious TRAE: Septic shock (Phase 1, 600 mg (N=64)): 0 No. (%)
Serious TRAE: Sudden cardiac arrest (Phase 1, 600 mg (N=64)): 1 (1.6) No. (%)
Serious TRAE: Sudden death (Phase 1, 600 mg (N=64)): 1 (1.6) No. (%)
Serious TRAE: Upper respiratory tract infection (Phase 1, 600 mg (N=64)): 0 No. (%)
Serious TRAE: Ventricular tachycardia (Phase 1, 600 mg (N=64)): 1 (1.6) No. (%)
Serious TRAE: Vomiting (Phase 1, 600 mg (N=64)): 2 (3.1) No. (%)
Serious TRAE: Weight loss (Phase 1, 600 mg (N=64)): 2 (3.1) No. (%)
Serious TEAE: ALT increased (Phase 1, 800 mg (N=3)): 0 No. (%)
Serious TEAE: AST increased (Phase 1, 800 mg (N=3)): 0 No. (%)
Serious TEAE: Abdominal Pain (Phase 1, 800 mg (N=3)): 0 No. (%)
Serious TEAE: Abdominal distension (Phase 1, 800 mg (N=3)): 0 No. (%)
Serious TEAE: Acute cholecystitis (Phase 1, 800 mg (N=3)): 0 No. (%)
Serious TEAE: Acute pancreatitis (Phase 1, 800 mg (N=3)): 0 No. (%)
Serious TEAE: Anal abscess (Phase 1, 800 mg (N=3)): 0 No. (%)
Serious TEAE: Any (Phase 1, 800 mg (N=3)): 1 (33.3) No. (%)
Serious TEAE: Aortic intramural hematoma (Phase 1, 800 mg (N=3)): 0 No. (%)
Serious TEAE: Arrhythmia (Phase 1, 800 mg (N=3)): 0 No. (%)
Serious TEAE: Blood bilirubin increased (Phase 1, 800 mg (N=3)): 0 No. (%)
Serious TEAE: Blood creatinine increased (Phase 1, 800 mg (N=3)): 0 No. (%)
Serious TEAE: COVID-19 (Phase 1, 800 mg (N=3)): 0 No. (%)
Serious TEAE: Cardiac tamponade (Phase 1, 800 mg (N=3)): 0 No. (%)
Serious TEAE: Coronary artery atherosclerosis (Phase 1, 800 mg (N=3)): 0 No. (%)
Serious TEAE: Death (Phase 1, 800 mg (N=3)): 0 No. (%)
Serious TEAE: Diarrhea (Phase 1, 800 mg (N=3)): 0 No. (%)
Serious TEAE: Drug eruption (Phase 1, 800 mg (N=3)): 0 No. (%)
Serious TEAE: Dyspnea (Phase 1, 800 mg (N=3)): 0 No. (%)
Serious TEAE: Embolism (Phase 1, 800 mg (N=3)): 0 No. (%)
Serious TEAE: Erythema multiforme (Phase 1, 800 mg (N=3)): 0 No. (%)

Source: article PMC11868595, “Safety, pharmacokinetics and efficacy of HA121-28 in patients with advanced solid tumors and RET fusion-positive non-small-cell lung cancer: a multicenter, open-label, single-arm phase 1/2 trial” (Signal Transduction and Targeted Therapy, 2025)
